Columns and labels:
MV4-11 cells (MLL-AF4) = assay: Cell proliferation and viability, trypan blue counting; format: cell-based, human; details: Homo sapiens, 360 h; MV4-11 (AF4), 15-day treatment; read-out: EC50 of the proliferation inhibition
MV4-11 cells = assay: Flow cytometry apoptosis analysis (Annexin V-APC/7-AAD); format: cell-based, human
Description: A decrease in the S phase of the cell cycle was also observed from 24% (day 8) to 20% (day 10), 13% (day 12).
In a 12-well plate, 2 mL exponentially growing MV4-11 cells were plated with a density of 2 × 10^5 cells/mL. […] Culture media and drugs were replaced every 2–3 days and cells were split back to a density of 2 × 10^5 cells/mL at the same time. Cells were harvested on days 8, 10, 12 and split to allow the analysis of cell cycle and Annexin V staining simultaneously. The apoptosis ratio was detected by an Annexin V-APC/7-AAD double staining assay (SONY 3804610) and cells were prepared according to the manufacturer’s recommendations. Cells for the cell cycle analysis were collected by centrifugation at 500× g for 5 min at 4 °C. The pellets were washed once with cold PBS and then fixed with 70% ethanol on ice for 30 min. Afterwards, the cells were washed once with cold PBS and stained with propidium iodide (Invitrogen P3566) for 30 min at 37 °C. Samples were measured using an Attune NxT acoustic focusing cytometer (Life Technologies), data were analyzed by FlowJo.

DNMT3A = DNMT3A (Homo sapiens, UniProt Q9Y6K1); assay: hDNMT3Acat activity assay; format: biochemical; details: substrate DNA, read-out: Enzyme % Activity (relative to DMSO controls)
Description: (§1) Table S1: Selectivity of the compound on a HMT panel (by Reaction Biology, USA) and on hDNMT3Acat (as described in Ceccaldi
(§2) Enzyme % Activity (relative to DMSO
(§3) Testing Concentration 10µM
(§4) Methyltransferase: Substrate: Activity enzyme in %

Microsomal stability = format: in vitro ADME
[1] = system: histone marks H2R2me2S, H3K4me3, H3K9me2, H4K20me2, H4K20me3, H3K9me1, H3K36me1; assay: Selectivity on histone marks by fluorescence microscopy HCS; format: cell-based; details: 7 tested histone marks other than H3K79me2
Description: This difference in the mechanism was further confirmed by flow cytometry analysis of the impact of the compounds on the cell cycle and apoptosis.
as §1, §2, §3, §4
EZH2 Complex Core Histone 86±1
Figure S4. Selectivity evaluation of the compound Dia-2 by fluorescence microscopy HCS. A) fluorescence imaging of the
H3K79me2 mark B) bar diagram of the percentage of inhibition for compound Dia-2.
(1 picture or pasted object on this page, not shown here)

H3K79me2 in MOLM13 cells = assay: Western blot of H3K79me2 normalized to total H3; format: cell-based, human; details: MOLM13, 6 days
Description: (§5) Next, we evaluated the effect on the demethylation of H3K79 in MLL-AF9 MOLM13 cells (Figure 7B).
(§6) The non-adherent cell lines MV4-11, MOLM-13, and KOPN8 exponentially growing cells were plated in 12-well plates (1 plate for each experiment) at a rate of 500,000 cells per well at a final volume of 2 mL. The cells were incubated in the presence of increasing inhibitor concentrations (0.1, 0.32, 1, 3.2, 10 µM). The cells (1 to 2 million) were harvested at the time chosen according to the line in order to extract the histones and the RNAs.
(§7) For the isolation of histones from cells, 1 to 2 million cells were collected, after exposure to the chosen treatment, by centrifugation at 200× g and lysed by 5 min of incubation on ice in 250 μL of the nuclear extraction buffer (10 mM Tris-HCl, 10 mM MgCl2, 25 mM KCl, 1% Triton X-100, 8.6% sucrose, Roche Protease inhibitor tablet 1836145). The nuclei were collected by centrifugation at 600× g for 5 min at 4 °C. The supernatant was removed and the histones were extracted for 1 h with 0.4 N cold sulfuric acid. The extracts were clarified by centrifugation at 10,000× g for 10 min at 4 °C and transferred to a microcentrifuge tube containing a 10× volume of ice-cold acetone. The histones were precipitated at ‒20 °C overnight and recovered by centrifugation at 1500× g for 10 min in the form of a pellet and then resuspended in 80 μL of water. Histones were quantified by absorbance measured by a nanodrop at 276 nm.
(§8) After extraction, the histones (500ng) were separated on 4–20% Tris-Glycine gels (Invitrogen) and transferred onto a nitrocellulose membrane ([…]) using the iBlot® Gel Transfer Stacks Nitrocellulose kit Mini (Invitrogen). After blocking nonspecific sites for 1 h at room temperature in a solution of 1X TBS at 5% milk, the membrane was incubated with rabbit anti-H3K79me2 (ab3594, 1/1000) or anti-H3 (ab1791)1/1000) overnight at 4 °C or 1 h at RT. The membrane was then washed three times for 5 min in a 1X TBS solution containing 0.05% Tween20 and was then incubated with an HRP anti-rabbit secondary antibody (NA934V, 1/10,000) for 1 h at RT. […]

H3K79me2 in MV4-11 cells = assay: Western blot of H3K79me2 normalized to total H3; format: cell-based, human; details: MV4-11, 4 days, increasing concentrations
Description: as §5, §6, §7, §8

Sequence of DNMT3A (Q9Y6K1 634-912 limits assumed): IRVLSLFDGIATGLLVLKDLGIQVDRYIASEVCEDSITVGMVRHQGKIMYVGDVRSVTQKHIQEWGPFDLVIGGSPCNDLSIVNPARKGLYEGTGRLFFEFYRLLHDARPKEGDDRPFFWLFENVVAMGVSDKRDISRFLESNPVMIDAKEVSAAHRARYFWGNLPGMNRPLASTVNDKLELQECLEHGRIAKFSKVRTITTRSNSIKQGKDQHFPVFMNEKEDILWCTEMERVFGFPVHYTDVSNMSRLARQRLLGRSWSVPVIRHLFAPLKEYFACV

EC50 (MV4-11 cells (MLL-AF4)): 93 ± 4 nM
remaining activity at 10 µM (DNMT3A): 96 ± 2%
half-life increase (Microsomal stability; mouse liver microsomes, versus EPZ-4777 and EPZ-5676): 2 fold
microsomal CLint (Microsomal stability; mouse liver microsomes, read-out: intrinsic clearance): 121 µL/min/mg
half-life (Microsomal stability; mouse, liver microsomes): 11.5 min
Compound: CC(C)[C@H](CCCNC(=O)Nc1ccc(C(C)(C)C)cc1)N[C@H]1C[C@@H](n2cnc3c(N)ncnc32)[C@H](O)[C@@H]1O [Dia2, 1-((S)-4-(((1S,2R,3S,4R)-4-(6-amino-9H-purin-9-yl)-2,3-dihydroxycyclopentyl)amino)-5-methylhexyl)-3-(4-(tert-butyl)phenyl)urea]
effect on apoptosis (MV4-11 cells; MV4-11): very little apoptosis
apoptotic (Annexin V positive) cells (MV4-11 cells; MV4-11, 1 µM, day 8): 23%
apoptotic (Annexin V positive) cells (MV4-11 cells; MV4-11, 1 µM, day 10): 20%
apoptotic (Annexin V positive) cells (MV4-11 cells; MV4-11, 3.2 µM, day 8): 35%
apoptotic (Annexin V positive) cells (MV4-11 cells; MV4-11, 3.2 µM, day 10): 38%
effect on other histone marks in cells [1]: does not affect the other 7 tested histone marks
inhibition of the H3K79me2 mark (H3K79me2 in MOLM13 cells): as efficient as EPZ-5676
H3K79me2 methylation compared to DMSO treated cells (H3K79me2 in MV4-11 cells): efficient decrease in methylation

Source: PMC8434109, “Synthesis and Biological Activity of a Cytostatic Inhibitor of MLLr Leukemia Targeting the DOT1L Protein” (Molecules, 2021)
